Tested on: PBS pH 7.4 stability, 37 C, LC-MS/MS, 48 h
Experiment: Inhibitors of 12-hLO: PBS Stability Profiling
Settings: at 2 µM; stronger effect = higher value
Text: Assay Provider: Holman, T.R., University of California, Santa Cruz Grant #: MH08128301 Screening Center PI: Austin, C.P. Screening Center: NIH Chemical Genomics Center [NCGC] Human lipoxygenase 12hLO is a member of the closely related lipoxygenase family of enzymes which catalyze the site-specific oxidation of arachidonic acid to various hormone precursor molecules and as such is a candidate for drug development in a variety of disease areas, such as cancer and inflammation. After qHTS, hits were confirmed in follow-up assays, and leads were optimized through SAR. The resulting lead compound was further characterized through a battery ADME-Tox experiments, and this assay describes its stability in PBS buffer. The stability of the lead compound in PBS buffer is tested because this parameter has a significant impact on many ADME-concerned properties of drugs, such as uptake, distribution, transport, and eventually bioavailability.
2microM of compound is incubated in PBS buffer at pH 7; the reference compound is procaine. Compounds are incubated at 37 deg C for the pre-determined time periods and the when aliquots are removed. Samples are analyzed with LC-MS/MS.

percent remaining: 100%
SMILES: CC(=O)NC(c1cccs1)c1cc(Br)c2cccnc2c1O (stereo unspecified)

Source: PubChem BioAssay AID504581 (National Center for Advancing Translational Sciences (NCATS), 2011)
